Columns and labels:
[1] = background statement, test system not given; cited from earlier work
AA8 cells = experiment: Growth inhibition (cytotoxicity) in AA8 cells, 18 h drug exposure, methylene blue staining; type: cell-based, Chinese hamster; details: Cricetulus griseus, CHO-AA8, 18 h exposure then 78 h growth, 50% inhibition of growth relative to controls
Description: (§1) The compounds of Examples 1 and 3 show potent cytotoxicity to mammalian tumour cells, and are thus of interest as anticancer drugs. […] For these evaluations, AA8 and UV4 cells were maintained in exponential phase growth (doubling times 14 and 15 h respectively) using Alpha MEM containing fetal calf serum (10% v/v) without antibiotics, and were subcultured twice weekly by trypsinization. Bulk cultures were prepared for experiments by seeding cells in spinner flasks at 10^4 cells/mL in the above medium with addition of penicillin (100 IU/mL) and streptomycin (100 μg/mL). Cultures were initiated in 96-well microtiter trays to give 200 (AA8) or 300 (UV4) cells in 0.05 mL per well. After growth in a CO2 incubator for 24 h, drugs were added in culture medium, using serial two-fold dilutions to provide duplicate cultures at five different concentrations for each of eight drugs (plus eight controls) per tray. After 18 h drugs were removed by washing cultures three times with fresh medium, and the trays were incubated for a further 78 h. Cell density was then determined by staining with methylene blue as described [Finlay, G. J.; Baguley, B. C; Wilson, W. R. Anal. Biochem., 1984, 139, 272-277]. The IC50 was calculated as the drug concentration providing 50% inhibition of growth relative to the controls.

UV4 cells [2] = experiment: Growth inhibition (cytotoxicity) in UV4 cells, 18 h drug exposure, methylene blue staining; type: cell-based, Chinese hamster; details: Cricetulus griseus, 18 h exposure then 78 h growth (Example 9), read-out: IC50 against UV4 cells
Description: as §1, with “controls. […]” for “controls.”

UV4 cells [3] = experiment: Activation of prodrug by E. coli nitroreductase: IC50 in UV4 cells without and with purified enzyme and NADH; type: cell-based, Chinese hamster; details: for IC50: 18 hours; for fold activation by the enzyme: ratio of IC50 without to IC50 with E. coli nitroreductase, 1080 min
Description: as §1
The compound was incubated with UV4 cells for 18 hours in 96-well plates under aerobic conditions. The UV4 cell line is a mutant Chinese hamster ovary fibroblast lines derived from the wild-type AA8. It is a UV complementation group 1 mutant, with a defect in the incision step of excision repair [Thompson, L. H. et al Proc. Natl. Acad. Sci (USA), 1980, 78, 3734; Thompson, L. H.; Carrono, A. V. In Cellular responses to DNA Damage, UCLA Symposium on Molecular and Cellular Biology, New Series, Vol. 11 (Freidberg, E. C.; Bridges, B. R.; Eds), Alan R. Liss: New York, 1983: p 125], and is highly sensitive to agents which form bulky DNA monoadducts or crosslinks [Hoy, C.A . et al Cancer Res., 1985, 45, 1737-1747].
The experiment was repeated but in addition purified E. coli nitroreductase enzyme (1 μg/mL) and NADH (1 mM, as cofactor) was added during the entire time of the incubation. […] This represents a 26-fold activation by the enzyme.

human tumours = details: background statement; cited from earlier work

For `COc1c(O)c2c(c3cc(C(=O)N4CCc5c4c(O)c(OC)c4[nH]c(C(=O)N6CC7CC78C6=CC(=O)c6[nH]cc(C)c68)cc54)[nH]c13)CCN2C(N)=O` (stereo not shown) [CC-1065], the IC50 [1] is given as “low pM range”.
In the case of `COc1cc2cc(C(=O)N3CC(CCl)c4ccc(N)cc43)[nH]c2c(OC)c1OC` (stereo not shown) [Example 1, 6-Amino-3-(chloromethyl)-1-[(5',6',7'-trimethoxyindol-2'-yl)carbonyl]indoline], the IC50 (AA8 cells) is reported as 320 nM and the IC50 (UV4 cells [2]) is reported as 59 nM.
Work on `COc1cc2cc(C(=O)N3CC(CCl)c4ccc(NC(=O)OCc5ccc([N+](=O)[O-])cc5)cc43)[nH]c2c(OC)c1OC` (stereo not shown) [Example 3, 3-(Chloromethyl)-6-[(4"-nitrobenzyloxycarbonyl)amino]-1-[(5',6',7'-trimethoxyindol-2'-yl)carbonyl]indoline] yielded an IC50 (AA8 cells) of 23000 nM, an IC50 (UV4 cells [2]) of 19600 nM and an IC50 (UV4 cells [3]; Cricetulus griseus, aerobic conditions, no enzyme (Example 10), read-out: IC50 in UV4 cells in the absence of E. coli nitroreductase) of 11900 nM. The IC50 (UV4 cells [3]; Cricetulus griseus, aerobic, purified E. coli nitroreductase 1 μg/mL and NADH 1 mM during the entire incubation, read-out: IC50 in UV4 cells in the presence of E. coli nitroreductase) was 460 nM and the “fold activation by the enzyme” value (UV4 cells [3]) was 26 fold.
For `COC(=O)c1c(C)[nH]c2c(OC(=O)N3CCN(C)CC3)cc3c(c12)[C@H](CBr)CN3C(=O)c1cc2cc(OC)c(OC)c(OC)c2[nH]1` [KW-2189], the “anticancer activity against a range of human tumours” value (human tumours) is given as “show anticancer activity against a range of human tumours”.
In the case of `CCN(CC)c1ccc2cc(C(=O)Nc3ccc4[nH]c(C(=O)N5C[C@@H](CCl)c6c5cc(OC(=O)Nc5ccccc5)c5[nH]cc(C)c65)cc4c3)oc2c1` [carzelesin], the “anticancer activity against a range of human tumours” value (human tumours) is given as “show anticancer activity against a range of human tumours”.
For `COc1cc2cc(C(=O)N3CC(CCl)c4ccc([N+](=O)[O-])cc43)[nH]c2c(OC)c1OC` (stereo not shown) [example 1(h), 3-(Chloromethyl)-6-nitro-1-[(5',6',7'-trimethoxyindol-2'-yl)carbonyl]indoline], the IC50 (UV4 cells [3]; aerobic conditions, no enzyme (Example 10), read-out: IC50 in UV4 cells in the absence of E. coli nitroreductase) was 2340 nM, the IC50 (UV4 cells [3]; aerobic, purified E. coli nitroreductase 1 μg/mL and NADH 1 mM during the entire incubation, read-out: IC50 in UV4 cells in the presence of E. coli nitroreductase) was 6 nM and the “fold activation by the enzyme” value (UV4 cells [3]) was 400 fold.

Source: patent US5985909A, “Cyclopropylindoles and their seco precursors, and their use as prodrugs” (Cancer Research Campaign Technology Limited, priority 1995, dated 1999)
